# Patent publication US20230085307A1, “PYRIDAZINONE COMPOUND AND HERBICIDE” (NISSAN CHEMICAL CORPORATION, priority 2019, published 2023)
# What was measured:
# [1] = test system: late watergrass; assay: Test Example 1: herbicidal activity, application before weed generation under submerged conditions (Table 16, symbol A); format: in vivo, late watergrass (Echinochloa oryzicola); conditions: amount of applied herbicide 320 g/ha
# Procedure, shortened: (§1)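 Emulsion formulation, water-diluted to set dose, was put onto the flooded surface (4 cm depth, alluvial soil) the same day weeds were sown and 2.5-leaf rice transplanted. After 3 weeks at 25-30 °C under glass, each species was rated 0 (≤5% kill) to 5 (≥90% kill).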
# [2] = test system: Japanese bulrush; assay: Test Example 1: herbicidal activity, application before weed generation under submerged conditions (Table 16, symbol B); format: in vivo, Japanese bulrush (Schoenoplectus juncoides); conditions: amount of applied herbicide 320 g/ha
# Procedure, shortened: as §1
# [3] = test system: oval-leafed pondweed; assay: Test Example 1: herbicidal activity, application before weed generation under submerged conditions (Table 16, symbol C); format: in vivo, oval-leafed pondweed (Monochoria vaginalis); conditions: amount of applied herbicide 320 g/ha
# Procedure, shortened: as §1
# [4] = test system: barnyard grass; assay: Test Example 3: herbicidal effect by foliage application, Wagner pot (Table 18, symbol H); format: in vivo, barnyard grass (Echinochloa crus-galli); conditions: 320 g/ha
# Procedure, shortened: (§2)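 Plants were sown in alluvial soil held under 0.1–0.5 cm standing water and grown 14 days in a greenhouse at 25–30 °C. An emulsifiable formulation, water-diluted to the set dose, was then sprayed onto the foliage, and effects were scored three weeks later using previously defined criteria.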
# [5] = test system: Chinese sprangletop; assay: Test Example 3: herbicidal effect by foliage application, Wagner pot (Table 18, symbol D); format: in vivo, chinese sprangletop (Leptochloa chinensis); conditions: 320 g/ha
# Procedure, shortened: as §2
# [6] = test system: rice flat sedge; assay: Test Example 3: herbicidal effect by foliage application, Wagner pot (Table 18, symbol E); format: in vivo, rice flat sedge (Cyperus iria); conditions: 320 g/ha
# Procedure, shortened: as §2
# [7] = test system: southern crabgrass; assay: Test Example 4: herbicidal effect by soil treatment (Table 19, symbol F); format: in vivo, southern crabgrass (Digitaria ciliaris); conditions: amount of applied herbicide 320 g/ha
# Procedure, shortened: (§3)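 Emulsion of test compound, water-diluted to predetermined amount, sprayed on soil after sowing (seed depth ~1.5 cm, sterilized diluvial soil). Greenhouse, 25–30° C. Effect graded at three weeks post-spray.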
# [8] = test system: green foxtail; assay: Test Example 4: herbicidal effect by soil treatment (Table 19, symbol G); format: in vivo, green foxtail (Setaria viridis); conditions: amount of applied herbicide 320 g/ha
# Procedure, shortened: as §3
# [9] = test system: barnyard grass; assay: Test Example 4: herbicidal effect by soil treatment (Table 19, symbol H); format: in vivo, barnyard grass (Echinochloa crus-galli); conditions: amount of applied herbicide 320 g/ha
# Procedure, shortened: as §3
# [10] = test system: wild oat; assay: Test Example 4: herbicidal effect by soil treatment (Table 19, symbol I); format: in vivo, wild oat (Avena fatua); conditions: amount of applied herbicide 320 g/ha
# Procedure, shortened: as §3
# [11] = test system: blackgrass; assay: Test Example 4: herbicidal effect by soil treatment (Table 19, symbol J); format: in vivo, blackgrass (Alopecurus myosuroides); conditions: amount of applied herbicide 320 g/ha
# Procedure, shortened: as §3
# [12] = test system: Italian ryegrass; assay: Test Example 4: herbicidal effect by soil treatment (Table 19, symbol K); format: in vivo, Italian ryegrass (Lolium multiflorum); conditions: amount of applied herbicide 320 g/ha
# Procedure, shortened: as §3
# [13] = test system: windgrass; assay: Test Example 4: herbicidal effect by soil treatment (Table 19, symbol L); format: in vivo, windgrass (Apera spica-venti); conditions: amount of applied herbicide 320 g/ha
# Procedure, shortened: as §3
# [14] = test system: velvetleaf; assay: Test Example 4: herbicidal effect by soil treatment (Table 19, symbol M); format: in vivo, velvetleaf (Abutilon theophrasti); conditions: amount of applied herbicide 320 g/ha
# Procedure, shortened: as §3
# [15] = test system: redroot pigweed; assay: Test Example 4: herbicidal effect by soil treatment (Table 19, symbol N); format: in vivo, redroot pigweed (Amaranthus retroflexus); conditions: amount of applied herbicide 320 g/ha
# Procedure, shortened: as §3
# [16] = test system: lambsquarters; assay: Test Example 4: herbicidal effect by soil treatment (Table 19, symbol O); format: in vivo, lambsquarters (Chenopodium album); conditions: amount of applied herbicide 320 g/ha
# Procedure, shortened: as §3
# [17] = test system: chickweed; assay: Test Example 4: herbicidal effect by soil treatment (Table 19, symbol P); format: in vivo, common chickweed (Stellaria media); conditions: amount of applied herbicide 320 g/ha
# Procedure, shortened: as §3
# [18] = test system: false cleavers; assay: Test Example 4: herbicidal effect by soil treatment (Table 19, symbol Q); format: in vivo, false cleavers (Galium spurium); conditions: amount of applied herbicide 320 g/ha
# Procedure, shortened: as §3
# [19] = test system: persian speedwell; assay: Test Example 4: herbicidal effect by soil treatment (Table 19, symbol R); format: in vivo, Persian speedwell (Veronica persica); conditions: amount of applied herbicide 320 g/ha
# Procedure, shortened: as §3
# [20] = test system: southern crabgrass; assay: Test Example 5: herbicidal effect by foliage application, plastic box (Table 20, symbol F); format: in vivo, southern crabgrass (Digitaria ciliaris)
# Procedure, shortened: (§4)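 Post-emergence foliar test in sterilized diluvial soil. Compound applied as water-diluted emulsion at a predetermined rate to 14-day-old plants; evaluation at three weeks.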
# [21] = test system: green foxtail; assay: Test Example 5: herbicidal effect by foliage application, plastic box (Table 20, symbol G); format: in vivo, green foxtail (Setaria viridis)
# Procedure, shortened: as §4
# [22] = test system: barnyard grass; assay: Test Example 5: herbicidal effect by foliage application, plastic box (Table 20, symbol H); format: in vivo, barnyard grass (Echinochloa crus-galli)
# Procedure, shortened: as §4
# [23] = test system: wild oat; assay: Test Example 5: herbicidal effect by foliage application, plastic box (Table 20, symbol I); format: in vivo, wild oat (Avena fatua)
# Procedure, shortened: as §4
# [24] = test system: blackgrass; assay: Test Example 5: herbicidal effect by foliage application, plastic box (Table 20, symbol J); format: in vivo, blackgrass (Alopecurus myosuroides)
# Procedure, shortened: as §4
# [25] = test system: Italian ryegrass; assay: Test Example 5: herbicidal effect by foliage application, plastic box (Table 20, symbol K); format: in vivo, Italian ryegrass (Lolium multiflorum)
# Procedure, shortened: as §4
# [26] = test system: windgrass; assay: Test Example 5: herbicidal effect by foliage application, plastic box (Table 20, symbol L); format: in vivo, windgrass (Apera spica-venti)
# Procedure, shortened: as §4
# [27] = test system: velvetleaf; assay: Test Example 5: herbicidal effect by foliage application, plastic box (Table 20, symbol M); format: in vivo, velvetleaf (Abutilon theophrasti)
# Procedure, shortened: as §4
# [28] = test system: redroot pigweed; assay: Test Example 5: herbicidal effect by foliage application, plastic box (Table 20, symbol N); format: in vivo, redroot pigweed (Amaranthus retroflexus)
# Procedure, shortened: as §4
# [29] = test system: lambsquarters; assay: Test Example 5: herbicidal effect by foliage application, plastic box (Table 20, symbol O); format: in vivo, lambsquarters (Chenopodium album)
# Procedure, shortened: as §4
# [30] = test system: chickweed; assay: Test Example 5: herbicidal effect by foliage application, plastic box (Table 20, symbol P); format: in vivo, common chickweed (Stellaria media)
# Procedure, shortened: as §4
# [31] = test system: persian speedwell; assay: Test Example 5: herbicidal effect by foliage application, plastic box (Table 20, symbol R); format: in vivo, Persian speedwell (Veronica persica)
# Procedure, shortened: as §4
# [32] = foliage application, 320 g/ha, three weeks after application
# [33] = amount of applied herbicide 320 g/ha, foliage application after 14-day growth, evaluated three weeks after application
structure (smiles),measurement,setting,value
COc1ccccc1-c1sc2cc(Cl)ccc2c1-c1c(O)c(C)nn(C)c1=O [3-035],"Herbicidal effect, A: late watergrass",[1],3 (Herbicidal rate of 40% or more and less than 70%)
same,"Herbicidal effect, B: Japanese bulrush",[2],3 (Herbicidal rate of 40% or more and less than 70%)
same,"Herbicidal effect, C: oval-leafed pondweed",[3],0 (Herbicidal rate of 5% or less (almost no effect))
same,herbicidal effect on barnyard grass (H),[4],4 (Herbicidal rate of 70% or more and less than 90%)
same,herbicidal effect on Chinese sprangletop (D),[5],3 (Herbicidal rate of 40% or more and less than 70%)
same,herbicidal effect on rice flat sedge (E),[6],5 (Herbicidal rate of 90% or more (almost completely withered))
same,"F: southern crabgrass, herbicidal effect grade",[7],3 (Herbicidal rate of 40% or more and less than 70%)
same,"G: green foxtail, herbicidal effect grade",[8],4 (Herbicidal rate of 70% or more and less than 90%)
same,"H: barnyard grass, herbicidal effect grade",[9],5 (Herbicidal rate of 90% or more (almost completely withered))
same,"I: wild oat, herbicidal effect grade",[10],0 (Herbicidal rate of 5% or less (almost no effect))
same,"J: blackgrass, herbicidal effect grade",[11],3 (Herbicidal rate of 40% or more and less than 70%)
same,"K: Italian ryegrass, herbicidal effect grade",[12],2 (Herbicidal rate of 20% or more and less than 40%)
same,"L: windgrass, herbicidal effect grade",[13],0 (Herbicidal rate of 5% or less (almost no effect))
same,"M: velvetleaf, herbicidal effect grade",[14],3 (Herbicidal rate of 40% or more and less than 70%)
same,"N: redroot pigweed, herbicidal effect grade",[15],4 (Herbicidal rate of 70% or more and less than 90%)
same,"O: lambsquarters, herbicidal effect grade",[16],5 (Herbicidal rate of 90% or more (almost completely withered))
same,"P: chickweed, herbicidal effect grade",[17],4 (Herbicidal rate of 70% or more and less than 90%)
same,"Q: false cleavers, herbicidal effect grade",[18],3 (Herbicidal rate of 40% or more and less than 70%)
same,"R: persian speedwell, herbicidal effect grade",[19],1 (Herbicidal rate of 5% or more and less than 20%)
same,"F: southern crabgrass, herbicidal effect grade",[20]; [32],4 (Herbicidal rate of 70% or more and less than 90%)
same,"G: green foxtail, herbicidal effect grade",[21]; [32],5 (Herbicidal rate of 90% or more (almost completely withered))
same,"H: barnyard grass, herbicidal effect grade",[22]; [32],4 (Herbicidal rate of 70% or more and less than 90%)
same,"I: wild oat, herbicidal effect grade",[23]; [32],3 (Herbicidal rate of 40% or more and less than 70%)
same,"J: blackgrass, herbicidal effect grade",[24]; [32],3 (Herbicidal rate of 40% or more and less than 70%)
same,"K: Italian ryegrass, herbicidal effect grade",[25]; [32],3 (Herbicidal rate of 40% or more and less than 70%)
same,"L: windgrass, herbicidal effect grade",[26]; [32],4 (Herbicidal rate of 70% or more and less than 90%)
same,"M: velvetleaf, herbicidal effect grade",[27]; [32],4 (Herbicidal rate of 70% or more and less than 90%)
same,"N: redroot pigweed, herbicidal effect grade",[28]; [32],4 (Herbicidal rate of 70% or more and less than 90%)
same,"O: lambsquarters, herbicidal effect grade",[29]; [32],4 (Herbicidal rate of 70% or more and less than 90%)
same,"P: chickweed, herbicidal effect grade",[30]; [32],5 (Herbicidal rate of 90% or more (almost completely withered))
same,"R: persian speedwell, herbicidal effect grade",[31]; [32],5 (Herbicidal rate of 90% or more (almost completely withered))
CCCC(=O)Oc1c(C)nn(C)c(=O)c1-c1c(-c2ccc(F)cc2OC)sc2cc(F)c(F)cc12 [5-030],"Herbicidal effect, A: late watergrass",[1],3 (Herbicidal rate of 40% or more and less than 70%)
same,"Herbicidal effect, B: Japanese bulrush",[2],1 (Herbicidal rate of 5% or more and less than 20%)
same,"Herbicidal effect, C: oval-leafed pondweed",[3],0 (Herbicidal rate of 5% or less (almost no effect))
same,herbicidal effect on barnyard grass (H),[4],4 (Herbicidal rate of 70% or more and less than 90%)
same,herbicidal effect on Chinese sprangletop (D),[5],0 (Herbicidal rate of 5% or less (almost no effect))
same,herbicidal effect on rice flat sedge (E),[6],0 (Herbicidal rate of 5% or less (almost no effect))
same,"F: southern crabgrass, herbicidal effect grade",[7],1 (Herbicidal rate of 5% or more and less than 20%)
same,"G: green foxtail, herbicidal effect grade",[8],4 (Herbicidal rate of 70% or more and less than 90%)
same,"H: barnyard grass, herbicidal effect grade",[9],2 (Herbicidal rate of 20% or more and less than 40%)
same,"I: wild oat, herbicidal effect grade",[10],0 (Herbicidal rate of 5% or less (almost no effect))
same,"J: blackgrass, herbicidal effect grade",[11],5 (Herbicidal rate of 90% or more (almost completely withered))
same,"K: Italian ryegrass, herbicidal effect grade",[12],0 (Herbicidal rate of 5% or less (almost no effect))
same,"L: windgrass, herbicidal effect grade",[13],5 (Herbicidal rate of 90% or more (almost completely withered))
same,"M: velvetleaf, herbicidal effect grade",[14],3 (Herbicidal rate of 40% or more and less than 70%)
same,"N: redroot pigweed, herbicidal effect grade",[15],5 (Herbicidal rate of 90% or more (almost completely withered))
same,"O: lambsquarters, herbicidal effect grade",[16],5 (Herbicidal rate of 90% or more (almost completely withered))
same,"P: chickweed, herbicidal effect grade",[17],5 (Herbicidal rate of 90% or more (almost completely withered))
same,"Q: false cleavers, herbicidal effect grade",[18],0 (Herbicidal rate of 5% or less (almost no effect))
same,"R: persian speedwell, herbicidal effect grade",[19],5 (Herbicidal rate of 90% or more (almost completely withered))
same,"Herbicidal effect by foliage application, F: southern crabgrass",[20]; [33],0 (Herbicidal rate of 5% or less (almost no effect))
same,"Herbicidal effect by foliage application, G: green foxtail",[21]; [33],0 (Herbicidal rate of 5% or less (almost no effect))
same,"Herbicidal effect by foliage application, H: barnyard grass",[22]; [33],2 (Herbicidal rate of 20% or more and less than 40%)
same,"Herbicidal effect by foliage application, I: wild oat",[23]; [33],0 (Herbicidal rate of 5% or less (almost no effect))
same,"Herbicidal effect by foliage application, J: blackgrass",[24]; [33],4 (Herbicidal rate of 70% or more and less than 90%)
same,"Herbicidal effect by foliage application, K: Italian ryegrass",[25]; [33],0 (Herbicidal rate of 5% or less (almost no effect))
same,"Herbicidal effect by foliage application, L: windgrass",[26]; [33],5 (Herbicidal rate of 90% or more (almost completely withered))
same,"Herbicidal effect by foliage application, M: velvetleaf",[27]; [33],3 (Herbicidal rate of 40% or more and less than 70%)
same,"Herbicidal effect by foliage application, N: redroot pigweed",[28]; [33],3 (Herbicidal rate of 40% or more and less than 70%)
same,"Herbicidal effect by foliage application, O: lambsquarters",[29]; [33],3 (Herbicidal rate of 40% or more and less than 70%)
same,"Herbicidal effect by foliage application, P: chickweed",[30]; [33],5 (Herbicidal rate of 90% or more (almost completely withered))
same,"Herbicidal effect by foliage application, R: persian speedwell",[31]; [33],0 (Herbicidal rate of 5% or less (almost no effect))
